Source: BindingDB's records for doi:10.1021/jm010244+ (Axys Pharmaceuticals, 2001)

Target: plasmin (Homo sapiens)
Assay: The compound was tested for inhibition of human plasmin

Structure (SMILES) | Ki
Cc1cc2[nH]c(-c3cccc(-c4ccccc4)c3O)cc2cc1C(=N)N [2-(2-Hydroxy-biphenyl-3-yl)-6-methyl-1H-indole-5-carboxamidine] | 210 nM
N=C(N)c1ccc2[nH]c(-c3cccc(-c4ccccc4)c3O)cc2c1Cl [4-Chloro-2-(2-hydroxy-biphenyl-3-yl)-1H-indole-5-carboxamidine] | 3000 nM
